Data reported in the NIST ThermoML archive (doi:10.1021/acs.jced.5b01003).
Several values for one entry are separate records, joined by “and”; a condition that tells them apart may be missing. Equal entries are not always repeated. ± gives the expanded uncertainty stated by the source.

Conditions: Liquid, Transpiration method

CNCCN(C)C [N,N,N'-trimethylethylenediamine]
Conditions	vapor or sublimation pressure [kPa]
274.2 K	0.5021 ± 0.032
276.7 K	0.605 ± 0.039
281.8 K	0.8858 ± 0.056
286.8 K	1.271 ± 0.08
291 K	1.686 ± 0.11
296.3 K	2.403 ± 0.15
298.2 K	2.733 ± 0.17
301 K	3.259 ± 0.2
303.2 K	3.811 ± 0.24
304.1 K	4.074 ± 0.26
305.4 K	4.402 ± 0.27

CNCCN [N-methylethylenediamine]
Conditions	vapor or sublimation pressure [kPa]
272.2 K	0.2731 ± 0.017
274.3 K	0.3181 ± 0.02
275.4 K	0.3449 ± 0.022
278 K	0.4148 ± 0.027
278.6 K	0.4455 ± 0.028
279.4 K	0.4695 ± 0.029
280.2 K	0.4943 ± 0.031
281.3 K	0.5355 ± 0.034
282.3 K	0.5867 ± 0.037
283.1 K	0.6075 ± 0.038
284.1 K	0.6579 ± 0.042
284.9 K	0.6972 ± 0.044
286.3 K	0.7738 ± 0.049
287.8 K	0.8601 ± 0.054
289.3 K	0.9404 ± 0.059
290.6 K	1.034 ± 0.066
292.2 K	1.176 ± 0.074
294.6 K	1.394 ± 0.087
296.2 K	1.541 ± 0.097
298.1 K	1.762 ± 0.11
300.2 K	2.017 ± 0.13
302.2 K	2.275 ± 0.14

CN(C)CCN [2-dimethylamino-1-ethylamine]
Conditions	vapor or sublimation pressure
273.8 K	0.7397 ± 0.046 kPa
274.2 K	0.7526 ± 0.047 kPa
275.2 K	0.808 ± 0.051 kPa
276.7 K	0.8869 ± 0.055 kPa
278.2 K	0.9687 ± 0.06 kPa
280.7 K	1.114 ± 0.07 kPa
283.2 K	1.309 ± 0.082 kPa
285.6 K	1.561 ± 0.098 kPa
288.2 K	1.821 ± 0.11 kPa
290.7 K	2.088 ± 0.13 kPa
293.2 K	2.392 ± 0.15 kPa
295.6 K	2.763 ± 0.17 kPa
298.2 K	3.186 ± 0.2 kPa and 3.282 ± 0.2 kPa
300.7 K	3.755 ± 0.23 kPa and 3.727 ± 0.23 kPa
303.2 K	4.331 ± 0.27 kPa and 4.291 ± 0.27 kPa

CNCCNC [N1,N2-dimethylethane-1,2-diamine]
Conditions	vapor or sublimation pressure [kPa]
279.2 K	0.4258 ± 0.027
281.4 K	0.5045 ± 0.032
283.3 K	0.5851 ± 0.037
285.6 K	0.6936 ± 0.044
288.2 K	0.8579 ± 0.054
290.6 K	1.023 ± 0.064
293.2 K	1.228 ± 0.077
295.8 K	1.498 ± 0.094
298.2 K	1.781 ± 0.11
300.7 K	2.106 ± 0.13
303.4 K	2.477 ± 0.16
305.6 K	2.892 ± 0.18
308.2 K	3.408 ± 0.21
310.7 K	3.974 ± 0.25
